Source: publication PMC12615485, “New dengue virus inhibitors targeting NS3-NS5 interaction identified by in silico screening” (Frontiers in Microbiology, 2025)
Read-outs that look alike come from different tables or passages of the source.

Columns and labels:
[1] = biological target: NS3-NS5 interaction (NS3 f.l. binding to coated 6His-NS5_270–900) (Dengue virus type 2, UniProt P14340); assay: ELISA-based NS3-NS5 interaction assay; design: species or system DENV-2; settings: for IC50: analogues of hit 3, in-house synthesized hit 3 as control, 50% inhibition of NS3-NS5 binding in ELISA, read-out: In vitro activity IC50; for reduction of NS3-NS5 interaction: at the tested concentrations
Description: Nunc Maxisorp microplates (Thermo Fisher Scientific) were coated with 400 ng/well of 6His-NS5_270–900, or GST protein as a control, in PBS for 3 h at 37 °C and then blocked with 5% (wt/v) bovine serum albumin (BSA, Merck Life Science) in PBS overnight at 4 °C. Blocked wells were incubated at room temperature (RT) for 2 h with increasing amounts of NS3 f.l. or GST–NS3_172–618. 6His-NS5_270–900-coated plates were also incubated with increasing concentration of GST, as a control. After washing with PBS containing 0.3% Tween 20 (Fisher Scientific, Waltham, MA, United States), the NS3-NS5 interaction was detected by incubating the plates with the anti-NS3 monoclonal antibody (GT2811 clone, Genetex, Irvine, CA, United States) diluted 1:6,000 in PBS + 2% (v/v) FBS (Thermo Fisher Scientific) for 1 h at RT. The unbound primary antibody was removed by further washes with PBS + 0.3% Tween 20 and the secondary goat anti-mouse HRP-conjugated antibody (GenScript Biotech) at a dilution of 1:8,000 in PBS + 2% FBS was then added. After incubation for 1 h at RT and following washes, the colorimetric substrate 3,3′,5,5′-tetramethylbenzidine (TMB, SeraCare Life Sciences, Milford, MA, United States) was added to each well and absorbance was read at 450 nm by an ELISA plate reader (Tecan Infinite 200 PRO, Mannedorf, Switzerland).
To test the inhibitory effect of compounds on NS3-NS5 interaction, 6His-NS5_270–900-coated wells were incubated with a fixed amount of NS3 f.l. (200 ng) along with increasing concentrations of test compounds or DMSO as a control. To exclude non-specific inhibition of compounds due to colloidal aggregation, the inhibitory activities of compounds were tested in the presence or the absence of 0.002% Triton X-100 (Fisher Scientific), a condition which reverses and prevents the colloidal formation of organic molecules ([McGovern et al., 2003]). All the compound concentrations were tested at least in duplicate.

DENV-2 NGC strain = assay: Plaque reduction assay (PRA) in Vero cells; format: cell-based; settings: best analogues of hit 3, in-house synthesized hit 3 as control; PRA in Vero cells, NGC strain; read-out: Antiviral activity EC50
Vero cells [2] = assay: MTT cytotoxicity assay; settings: read-out: Cytotoxicity CC50; best analogues of hit 3, in-house synthesized hit 3 as control; MTT in Vero cells at 72 h
Vero cells [3] = system: Vero cells

## O=C(NNC(=S)Nc1ccc(Cl)cc1Cl)c1ccccc1O [Compound 51]
[1]
  IC50: 97.2 ± 24.3 µM

## COc1ccc(C(=O)NNC(=S)Nc2ccccc2)cc1 [Compound 52]
[1]
  IC50: 167 ± 29 µM

## O=C(NNC(=S)Nc1ccccc1)c1ccccc1O [Compound 53]
[1]
  IC50: 82.7 ± 21.5 µM

## CCOC(=O)c1ccc(NC(=S)NNC(=O)c2ccccc2O)cc1 [Compound 54]
[1]
  IC50: 31 ± 18.3 µM

## Cc1ccc(NC(=S)NNC(=O)c2ccc(C(F)(F)F)cc2)cc1 [Compound 55]
[1]
  IC50: 118 ± 23 µM

## COc1ccccc1C(=O)NNC(=S)Nc1ccc(C)cc1 [Compound 56]
[1]
  IC50: 21.2 ± 3.4 µM

## Cc1ccc(NC(=S)NNC(=O)c2ccccc2)cc1 [Compound 57]
[1]
  IC50: 55.6 ± 22.7 µM

## Cc1ccc(NC(=S)NNC(=O)c2ccccc2F)cc1 [Compound 58]
[1]
  IC50: 21.3 ± 7.9 µM

## Cc1ccc(NC(=S)NNC(=O)c2ccccc2C)cc1 [Compound 59]
[1]
  IC50: 29 ± 6.9 µM

## Cc1ccc(NC(=S)NNC(=O)c2ccc(C)cc2)cc1 [Compound 60]
[1]
  IC50: 149 ± 21 µM

## Cc1ccc(NC(=S)NNC(=O)c2cccc(O)c2)cc1 [Compound 61]
[1]
  IC50: > 200 µM
  reduction of NS3-NS5 interaction: < 50%

## Cc1ccc(NC(=S)NNC(=O)c2ccc(O)cc2)cc1 [Compound 62]
[1]
  IC50: > 200 µM
  reduction of NS3-NS5 interaction: < 50%

## Cc1ccc(NC(=S)NNC(=O)c2ccc(O)cc2O)cc1 [Compound 63]
[1]
  IC50: 172 ± 31 µM

## Cc1ccc(NC(=S)NNC(=O)c2ccccn2)cc1 [Compound 64]
DENV-2 NGC strain
  EC50: 2.1 ± 1.6 µM
Vero cells [2]
  CC50: 39.6 ± 10.2 µM

## Cc1ccc(NC(=S)NNC(=O)c2cccs2)cc1 [Compound 65]
[1]
  IC50: 64.9 ± 19.5 µM

## CN(C)c1ccc(NC(=S)NNC(=O)c2ccccc2O)cc1 [Compound 66]
[1]
  IC50: 12.5 ± 4.1 µM

## O=C(NNC(=S)Nc1ccc([N+](=O)[O-])cc1)c1ccccc1O [Compound 67]
[1]
  IC50: > 200 µM
  reduction of NS3-NS5 interaction: < 50%

## Cc1ccc(NC(=S)NNC(=O)c2ccco2)cc1 [Compound 68]
[1]
  IC50: 20.1 ± 7.5 µM

## CN(C)c1ccc(NC(=S)NNC(=O)c2ccccn2)cc1 [Compound 69]
DENV-2 NGC strain
  EC50: 12.4 ± 5.8 µM
Vero cells [3]
  CC50: 72 ± 17.2 µM
[1]; IC50 of 1.0 μM versus 15.6 μM
  fold lower IC50 than hit 3: 15 fold
